Values quoted from earlier work as cited in patent publication US12685722B2, “Compositions of matter and pharmaceutical compositions” (Atai Therapeutics, Inc., priority 2020, dated 2026).

For `CN(C)CCc1c[nH]c2cccc(O)c12` [psilocin], the in vivo half-life is listed as “about 50 minutes” and the psychedelic experiences lasting (in vivo) is listed as 4 to 6 h.
